Results reported in US7132437B2, “Renal-selective biphenylalkyl 1H-substituted-1,2,4-triazole angiotensin II antagonists for treatment of hypertension” (G.D. Searle, priority 1990, dated 2006).

What was measured:
[1] = test system: spontaneously hypertensive rats (SHR); assay: Assay D: In Vivo Effects of Chronic Infusion of Conjugate (mean arterial pressure, heart rate); set-up: species or system rat
Method: Assay D: In Vivo Effects of Chronic Infusion of Conjugate of the Invention
(§1) This in vivo experiment was conducted to characterize the effects of the Example 79 conjugate on spontaneously hypertensive rats (SHR) by acute administration i.v. and by chronic administration i.v. The […] compound or saline vehicle was infused continuously for four days in SHR. Mean arterial pressure was measured (Gould Chart Recorder, model 3800; Statham P23 Db pressure transducer) via an indwelling femoral artery catheter between 10:00 a.m. and 2:00 P.M. each day. The Example 79 conjugate (10 mg/hr) or saline was infused via a jugular vein catheter with a Harvard infusion pump. […] A test was conducted to determine whether the Example 79 conjugate would antagonize non-renal, vascular angiotensin II receptors. In this test AII was administered by bolus injection (100 ng/kg) to the SHR rats (described above) on the control day and on days 1, 3 and 4 during conjugate infusion.

[2] = molecular target: T1, non-renal, vascular angiotensin II receptors (Rattus norvegicus, UniProt P25095); assay: Assay D: AII pressor response during conjugate infusion (systemic AII antagonism); assay type: in vivo; details: SHR; for AII Pressor Response: 10 mg/hr infusion, AII bolus 100 ng/kg, control day 31 ± 4
T1 construct: from tissue; host or cells: whole animal: spontaneously hypertensive rat (SHR), systemic vasculature
T1 sequence (P25095 1-359): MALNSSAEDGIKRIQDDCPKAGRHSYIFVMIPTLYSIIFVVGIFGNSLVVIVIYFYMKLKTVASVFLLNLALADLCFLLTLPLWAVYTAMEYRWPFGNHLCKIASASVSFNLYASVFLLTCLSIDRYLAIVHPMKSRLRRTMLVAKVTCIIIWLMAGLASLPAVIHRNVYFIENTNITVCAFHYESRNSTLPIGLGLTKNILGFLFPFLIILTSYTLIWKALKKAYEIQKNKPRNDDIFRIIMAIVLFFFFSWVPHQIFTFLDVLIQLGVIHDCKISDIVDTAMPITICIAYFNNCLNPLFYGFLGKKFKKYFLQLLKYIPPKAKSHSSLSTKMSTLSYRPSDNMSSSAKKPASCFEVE
Method: as §1

Row | AII Pressor Response ([2]; day 1, ± SD) | AII Pressor Response ([2]; day 3) | AII Pressor Response ([2]; day 4) | SMILES | mean arterial pressure compared to saline vehicle control ([1]; 10 mg/hr infused for four days) | tachycardia ([1]; day 1 of conjugate infusion) | Heart Rate ([1]; days 2 to 4 of conjugate infusion) | systemic angiotensin II receptor antagonism ([2]; AII bolus 100 ng/kg on control day and days 1, 3 and 4 of infusion) | MAP (mean arterial pressure) ([1]; 10 mg/hr i.v. infusion, day 1, control day 183 ± 5, ± SD) [mm Hg] | Heart Rate ([1]; 10 mg/hr i.v. infusion, day 1, control day 352 ± 9, ± SD) [Beats/min.] | MAP (mean arterial pressure) ([1]; 10 mg/hr i.v. infusion, day 2, control day 183 ± 5) [mm Hg] | Heart Rate ([1]; 10 mg/hr i.v. infusion, day 2, control day 352 ± 9) [Beats/min.] | MAP (mean arterial pressure) ([1]; 10 mg/hr i.v. infusion, day 3, control day 183 ± 5) [mm Hg] | Heart Rate ([1]; 10 mg/hr i.v. infusion, day 3, control day 352 ± 9) [Beats/min.] | MAP (mean arterial pressure) ([1]; 10 mg/hr i.v. infusion, day 4, control day 183 ± 5) [mm Hg] | Heart Rate ([1]; 10 mg/hr i.v. infusion, day 4, control day 352 ± 9) [Beats/min.]
1 |  |  |  | CCCCc1nc(CCCC)n(Cc2ccc(-c3ccccc3C(=O)NNC(=O)CCC(NC(C)=O)C(=O)O)cc2)n1 (stereo not drawn) [Example 79 conjugate, N-acetylglutamic acid, 5-[[4′-[(3,5-dibutyl-1H-1,2,4-triazol-1-yl)methyl][1,1′-biphenyl]-2-yl]]carbonylhydrazide] | lowered mean arterial pressure | Tachycardia was observed on day 1 | heart rate was returned to control level during the next three days | No evidence for systemic angiotensin II receptor antagonism was observed |  |  |  |  |  |  |  | 
2 | 30 ± 6 | 29 ± 5 | 25 ± 3 | CCCCc1nc(CCCC)n(Cc2ccc(-c3ccccc3C(=O)NNC(=O)CCC(NC(C)=O)C(=O)O)cc2)n1 (stereo not drawn) [Ex. #18 Conjugate, N-acetylglutamic acid, 5-[[4′-[(3,5-dibutyl-1H-1,2,4-triazol-1-yl)methyl][1,1′-biphenyl]-2-yl]]carbonylhydrazide] |  |  |  |  | 159 ± 7 | 395 ± 21 | 155 ± 4 | 352 ± 12 | 154 ± 6 | 344 ± 22 | 166 ± 9 | 374 ± 20
